Experiment: xn = mol fraction of the nth substance listed
Conditions: 100 kPa, Liquid; for electrical conductivity: Alternating current cell with electrodes; for viscosity: Capillary tube (Ostwald / Ubbelohde) method; for mass density: Vibrating tube method

Cn1cc[n+](C)c1.O=S(=O)([N-]S(=O)(=O)C(F)(F)F)C(F)(F)F [1,3-dimethylimidazolium bis((trifluoromethyl)sulfonyl)amide] + O=C1CCCO1
Conditions	electrical conductivity, 313.15 K [S/m]	electrical conductivity, 318.15 K [S/m]	electrical conductivity, 323.15 K [S/m]	mass density, 313.15 K [kg/m3]	mass density, 318.15 K [kg/m3]	mass density, 323.15 K [kg/m3]	viscosity, 313.15 K [mPa·s]	viscosity, 318.15 K [mPa·s]	viscosity, 323.15 K [mPa·s]
x1 = 0.05124	1.4	1.5	1.59	1175.06	1170.08	1165.1	1.71	1.62	1.52
x1 = 0.09948	1.98	2.12	2.25	1225.8	1220.75	1215.71	2.2	2.04	1.89
x1 = 0.1551	2.19	2.35	2.51	1274.45	1269.35	1264.27	2.77	2.57	2.39
x1 = 0.2007	2.25	2.42	2.59	1308.37	1303.25	1298.14	3.3	3.03	2.79
x1 = 0.2991	2.23	2.4	2.59	1367.77	1362.59	1357.45	4.7	4.27	3.89
x1 = 0.4002	2.09	2.25	2.45	1414.76	1409.55	1404.4	6.5	5.81	5.3
x1 = 0.4998	1.95	2.12	2.31	1451.46	1446.23	1441.07	8.6	7.64	6.82
x1 = 0.6127	1.76	1.92	2.11	1484.8	1479.57	1474.41	11.46	10.05	8.92
x1 = 0.7009	1.61	1.77	1.96	1506.34	1501.11	1495.96	13.89	12.18	10.71
x1 = 0.8002	1.48	1.65	1.82	1526.95	1521.73	1516.59	16.86	14.75	12.9
x1 = 0.8997	1.32	1.49	1.67	1544.49	1539.27	1534.13	20.08	17.45	15.17
x1 = 1	1.2	1.35	1.51	1559.73	1554.49	1549.34	23.43	20.25	17.72

Reference: the NIST ThermoML archive (doi:10.1016/j.jct.2017.10.004)
